Assay results from ChEMBL document CHEMBL1201862, “PubChem BioAssay data set” (2004).
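Following 48 hours of exposure in 96-well plates, responses at five concentrations were used to interpolate endpoints linearly. Abbreviation: GI50, concentration required for 50% inhibition of growth.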 Activity calls are given as the source filed them. Cut-off read from the data, not from the text of the source: active = GI50 up to about 1.1 µM and inactive = higher.

Legend:
Assay in all cases: DTP human tumour cell line panel, 48 h
A549 = test system: A549
CAKI-1 = test system: CAKI-1
CCRF-CEM = test system: CCRF-CEM
COLO 205 = test system: COLO 205
HL-60 = test system: HL-60
HOP-62 = test system: HOP-62
Hs-578T = test system: Hs-578T
NCI-H23 = test system: NCI-H23
NCI-H522 = test system: NCI-H522
OVCAR-3 = test system: OVCAR-3
OVCAR-4 = test system: OVCAR-4
OVCAR-8 = test system: OVCAR-8
SK-MEL-2 = test system: SK-MEL-2
SK-OV-3 = test system: SK-OV-3
SN12C = test system: SN12C
SNB-19 = test system: SNB-19
SW-620 = test system: SW-620
U-251 = test system: U-251
UO-31 = test system: UO-31
RPMI-8226 = test system: RPMI-8226

Measured: GI50

CC(C)(Oc1ccc(Cl)cc1)C(=O)N(C(=O)N1CCN(c2ccccc2)CC1)c1ccccc1
inactive: A549 7.46 µM | CAKI-1 7.87 µM | CCRF-CEM 7.1 µM | COLO 205 6.49 µM | HL-60 4.16 µM | HOP-62 > 100 µM | Hs-578T > 100 µM | NCI-H23 8.83 µM | NCI-H522 5.57 µM | OVCAR-3 26.7 µM | OVCAR-4 8.49 µM | OVCAR-8 > 100 µM | SK-MEL-2 > 100 µM | SK-OV-3 > 100 µM | SN12C 42.3 µM | SNB-19 > 100 µM | SW-620 8.93 µM | U-251 6.21 µM | UO-31 11.7 µM

Cn1ccnc1S/C(=C\C=C(C#N)C#N)c1ccc(Cl)cc1
active: CCRF-CEM 0.126 µM | HL-60 0.461 µM | OVCAR-8 1.12 µM | SN12C 1.09 µM | SW-620 0.303 µM
inactive: A549 6.27 µM | CAKI-1 1.69 µM | COLO 205 2.99 µM | HOP-62 4.17 µM | Hs-578T 4.38 µM | NCI-H23 1.61 µM | NCI-H522 2.45 µM | OVCAR-3 2.22 µM | OVCAR-4 4.09 µM | SK-OV-3 8.07 µM | SNB-19 3.48 µM | U-251 2.82 µM | UO-31 2.64 µM

N#Cc1[nH]c(=O)n(-c2ccc(Cl)cc2)c1N
inactive: A549 > 10 µM | CCRF-CEM > 10 µM | COLO 205 > 10 µM | HL-60 > 10 µM | HOP-62 > 10 µM | Hs-578T > 10 µM | NCI-H23 > 10 µM | NCI-H522 > 10 µM | OVCAR-3 > 10 µM | OVCAR-4 > 10 µM | OVCAR-8 > 10 µM | RPMI-8226 > 10 µM | SK-MEL-2 > 10 µM | SK-OV-3 > 10 µM | SN12C > 10 µM | SNB-19 > 10 µM | U-251 > 10 µM
active: CAKI-1 0.00637 µM

CC(=O)Nc1cc2nc3n(c2cc1C)CCC3OC(C)=O (stereo unspecified)
inactive: A549 > 100 µM | CAKI-1 > 100 µM | CCRF-CEM > 100 µM | COLO 205 > 100 µM | HL-60 > 100 µM | Hs-578T > 100 µM | NCI-H23 > 100 µM | NCI-H522 > 100 µM | OVCAR-3 > 100 µM | OVCAR-4 > 100 µM | OVCAR-8 > 100 µM | RPMI-8226 > 100 µM | SK-MEL-2 > 100 µM | SK-OV-3 > 100 µM | SN12C > 100 µM | SNB-19 > 100 µM | SW-620 > 100 µM | U-251 > 100 µM | UO-31 > 100 µM

COC(=O)C1=COC2OC3C(C(C)O)C(=O)OC34C=CC1C24 (stereo unspecified)
inactive: A549 > 100 µM | CAKI-1 55 µM | CCRF-CEM 14.9 µM | COLO 205 40.6 µM | HL-60 15.5 µM | Hs-578T 34 µM | NCI-H23 80.9 µM | NCI-H522 14.8 µM | OVCAR-3 29.5 µM | OVCAR-4 > 100 µM | OVCAR-8 20.9 µM | RPMI-8226 29.1 µM | SK-MEL-2 31 µM | SK-OV-3 59.7 µM | SN12C 50.1 µM | SNB-19 51.5 µM | SW-620 29.4 µM | U-251 60 µM | UO-31 74.6 µM

N=C(N)NCCCC(=O)O
inactive: A549 > 100 µM | CAKI-1 > 100 µM | CCRF-CEM > 100 µM | COLO 205 > 100 µM | HL-60 > 100 µM | HOP-62 > 100 µM | Hs-578T > 100 µM | NCI-H23 > 100 µM | NCI-H522 > 100 µM | OVCAR-3 > 100 µM | OVCAR-4 > 100 µM | OVCAR-8 > 100 µM | RPMI-8226 > 100 µM | SK-MEL-2 > 100 µM | SK-OV-3 > 100 µM | SN12C > 100 µM | SNB-19 > 100 µM | SW-620 > 100 µM | U-251 > 100 µM | UO-31 > 100 µM

COc1ccc(C(=O)c2sc(Nc3ccccc3)nc2N)cc1
inactive: A549 24.2 µM | CCRF-CEM 1.17 µM | HL-60 2.2 µM | HOP-62 21 µM | Hs-578T 23.3 µM | NCI-H23 > 100 µM | NCI-H522 6.82 µM | OVCAR-3 > 26.9 µM | OVCAR-4 10.7 µM | OVCAR-8 29 µM | RPMI-8226 3.72 µM | SK-MEL-2 4.88 µM | SK-OV-3 26.9 µM | SN12C > 60.5 µM | SNB-19 22.7 µM | SW-620 2.69 µM | U-251 12.7 µM | UO-31 55.8 µM
